# Data as given in patent publication US8809338B2, “1,2,3-triazole-based peptidomimetic integrin inhibitors for the diagnosis and therapy of tumors” (Universita' Degli Studi di Firenze, priority 2010, dated 2014).
# pIC50: −log10 of the molar value. Entries after “also recorded” stand apart in the source; their conditions may differ.
# Assays:
# [1] = biological target: T1, αvβ3 integrin (Homo sapiens, UniProt P05106+P06756); experiment: Solid-phase receptor binding assay, [125I]-Echistatin competition, αvβ3; details: for pIC50: αvβ3 purified from human placenta, competition with [125I]-Echistatin
# T1 construct: purified from human placenta; from tissue; host or cells: human placenta
# Description: Solid-phase receptor binding assay. [^125I]-Echistatin, labelled according to the lactoperoxidase method and with a specific activity of 2000 Ci/mmol, and αvβ3 and αvβ5 integrins, purified from human placenta, are used for the in vitro assays. Purified αvβ3 and αvβ5 receptors are respectively diluted to 500 ng/mL and 1000 ng/mL in 20 mM Tris (pH 7.4), 150 mM NaCl, 2 mM CaCl2, 1 mM MgCl2, 1 mM MnCl2. An amount of the diluted receptor solutions (100 μL/well) is added to a 96-well microtiter plate (Optiplate-96 HB, PerkinElmer Life Sciences, Boston, Mass.) and incubated at 4° C. for 16 h. Then, the plate is washed once with an incubation buffer [20 mM Tris (pH 7.4), 150 mM NaCl, 2 mM CaCl2, 1 mM MgCl2, 1 mM MnCl2, 1% BSA] and incubated for additional 2 h at room temperature. The plate is treated twice with the same buffer, and competitive binding experiments are carried out with a fixed concentration of [^125I]-Echistatin (0.05 nM and 0.1 nM for αvβ3 and αvβ5 respectively) and concentrations of the test compounds ranging from 0.01 nM to 100 μM. All the assays are carried out in triplicate at a final volume of 0.2 mL, each containing the following species: 0.05 mL of [^125I]-Echistatina, 0.04 mL of the test compounds, and 0.11 mL of the incubation buffer. Non-specific binding is defined as the [^125I]-Echistatin bound in the presence of excess (1 μM) of non-labelled echistatin. After an incubation period of 3 h at room temperature, the plate is washed three times with the incubation buffer, then the radioactivity is measured in a plate counter Top-Count NXT (Perkin Elmer Life Sciences, Boston, Mass.) using 200 μL/well of scintillating liquid MicroScint-40 (PerkinElmer Life Sciences, Boston, Mass.). Data analysis. IC50 values are determined by fitting the binding inhibition data with a non-linear regression, using the GraphPad Prism 4.0 software package (GraphPad Prism, San Diego, Calif.). […] The inhibition curves better fitted according to a two-sites model (p<0.05) rather than a single-site model are considered to be significant.
# [2] = biological target: T2, αvβ5 integrin (Homo sapiens, UniProt P06756+P18084); experiment: Solid-phase receptor binding assay, [125I]-Echistatin competition, αvβ5; details: αvβ5 purified from human placenta; competition with [125I]-Echistatin
# T2 construct: purified from human placenta; from tissue; host or cells: human placenta
# Description: Solid-phase receptor binding assay. [^125I]-Echistatin, labelled according to the lactoperoxidase method and with a specific activity of 2000 Ci/mmol, and αvβ3 and αvβ5 integrins, purified from human placenta, are used for the in vitro assays. Purified αvβ3 and αvβ5 receptors are respectively diluted to 500 ng/mL and 1000 ng/mL in 20 mM Tris (pH 7.4), 150 mM NaCl, 2 mM CaCl2, 1 mM MgCl2, 1 mM MnCl2. An amount of the diluted receptor solutions (100 μL/well) is added to a 96-well microtiter plate (Optiplate-96 HB, PerkinElmer Life Sciences, Boston, Mass.) and incubated at 4° C. for 16 h. Then, the plate is washed once with an incubation buffer [20 mM Tris (pH 7.4), 150 mM NaCl, 2 mM CaCl2, 1 mM MgCl2, 1 mM MnCl2, 1% BSA] and incubated for additional 2 h at room temperature. […] After an incubation period of 3 h at room temperature, the plate is washed three times with the incubation buffer, then the radioactivity is measured in a plate counter Top-Count NXT (Perkin Elmer Life Sciences, Boston, Mass.) using 200 μL/well of scintillating liquid MicroScint-40 (PerkinElmer Life Sciences, Boston, Mass.). […] IC50 values are determined by fitting the binding inhibition data with a non-linear regression, using the GraphPad Prism 4.0 software package (GraphPad Prism, San Diego, Calif.). […]
# [3] = test system: A375M melanoma cell line; experiment: Melanoma cell line assay, inhibition of cell adhesion to RGD-containing substrates; assay type: cell-based, human; details: compounds at 10, 1.0 and 0.1 μM, FIG. 3
# Description: A series of experiments carried out using the flux cytometry technique and specific monoclonal antibodies, allowed for the setup of particular human melanoma cells characterized by an over-expression of integrin receptors. Such cells have been used to test the capability of selected compounds of formula (I) at 10, 1.0 and 0.1 μM concentrations, of inhibiting the binding between these cells and suitable substrates containing the RGD sequence, such as vitronectin, fibronectin, and osteopontin (FIG. 3).
# Melanoma cell line assay. The selected cell line for this study is the A375M, which are in vivo selected melanoma cells starting from A375P cells isolated from a amelanotic human melanoma. The expression of the RGD-dependent integrinic pattern, comprising αvβ3, αvβ5, α5β1 integrins, of A375M cells is determined by the flux cytometry technique (FACScanto, Becton & Dickinson) and by RT-PCR. With aim to evaluate the ability of compounds of formula (I) of binding to integrins exposed to the melanoma cells surface, the inhibition of adhesion of such cells to vitronectin, fibronectin and osteopontin are measured. A spectrophotometric evaluation of the cellular content of the culture plates used in the adhesion tests allows for the precision and the correlation of the results obtained in different experiments.
Structure (SMILES),pIC50 [1],other results
N=C(NCCCc1cn(CC(=O)N[C@@H](CC(=O)O)c2ccccc2)nn1)NCCc1ccc(O)cc1 [Compound 59],6.51,
N=C(N)NCCCc1cn(CC(=O)NC(CC(=O)O)c2ccc(F)cc2)nn1 (centres unmarked) [Compound 49],7.00,
Cc1ccc(S(=O)(=O)N(CCn2cc(CCNC(=N)N)nn2)CC(=O)O)cc1 [Compound 52],,inhibition at 1 µM ([1]; 1 μM concentration): 54%; inhibition at 10 µM ([1]; 10 μM concentration): 77%
O=C(O)C[C@H](NC(=O)Cn1cc(CCCNCc2nc3ccccc3[nH]2)nn1)c1ccc(F)cc1 [Compound 57],6.70,
N=C(N)NCCCc1cn(CC(=O)N[C@@H](CC(=O)O)c2ccc(O)cc2)nn1 [Compound 54],5.68,

# Second part, led by results:
pIC50 [1],Structure (SMILES),other results
7.89,N=C(N)NCCCc1cn(CC(=O)NCCC(=O)O)nn1 [Compound 55],
6.67,N=C(N)NCCCc1cn(CC(=O)NC(CC(=O)O)c2ccc(F)cc2)nn1 (centres unmarked) [Compound 48],pIC50 [2]: 5.00; inhibition of adhesion of melanoma cells to fibronectin [3]: minor effect; inhibition of binding of melanoma cells to osteopontin [3]: significantly inhibits; also recorded: minor effect; inhibition of binding of melanoma cells to vitronectin [3]: significantly inhibits
7.79,N=C(N)NCCCc1cn(CC(=O)N[C@@H](CC(=O)O)c2ccccc2)nn1 [Compound 38],pIC50 [2]: 5.99
